Here are results for 14 compounds from patent US5116985A, “Isoquinoline derivatives and salts thereof” (priority 1989, dated 1992).

SMILES strings stand for the structures. Counter-ions that a name gives are not always drawn.

The target in assay [1] is T1, trypsin (Bos taurus, UniProt P00760).
T1 sequence (P00760 24-246): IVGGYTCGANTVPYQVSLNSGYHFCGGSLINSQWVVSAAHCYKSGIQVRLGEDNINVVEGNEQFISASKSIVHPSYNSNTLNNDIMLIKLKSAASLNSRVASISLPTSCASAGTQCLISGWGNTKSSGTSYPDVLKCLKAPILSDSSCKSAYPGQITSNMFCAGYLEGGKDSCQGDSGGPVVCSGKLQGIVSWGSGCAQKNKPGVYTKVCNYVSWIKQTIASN
Briefly: Inhibition of trypsin hydrolysis of TAME (p-tosylarginine methyl ester), in vitro. The assay is classed as biochemical. The conditions noted are these: TAME substrate, 1.5 μg of trypsin, 37° C., 10 minutes; read-out: 50% inhibitory concentration, substrate TAME. As for the experimental part: (§1) The inhibitory activity on trypsin in vitro was determined by the methods of Muramatsu, et al. described in the Journal of Biochemistry, 58, 214 (1965).

For assay [2], the target named is T1, trypsin. Briefly: Inhibition of trypsin hydrolysis of casein, in vitro. The assay is classed as biochemical. The conditions noted are these: casein substrate, 20 μg of trypsin, 37° C., 10 minutes; read-out: 50% inhibitory concentration, substrate casein. As for the experimental part: as §1

For `CN(C)C(=O)COC(=O)c1nccc2c(OC(=O)c3ccc(NC(=N)N)cc3)cccc12` [Compound No. 12, 1'-(N,N-Dimethylcarbamoyl)methoxycarbonyl-5'-isoquinolyl 4-guanidinobenzoate hydrochloride], the IC50 in assay [1] was 66 nM; in assay [2], 140 nM.
As to `CN(C)C(=O)COC(=O)Cc1ccc(OC(=O)c2ccc(NC(=N)N)cc2)cc1` [Camostat mesylate, N,N-Dimethylcarbamoylmethyl -p-( -p-guanidinobenzoyloxy)phenylacetate methanesulfonate, reference compound], the IC50 in assay [1] is 65 nM; in assay [2], 140 nM.
Consider `CC(=O)c1nccc2c(OC(=O)c3ccc(NC(=N)N)cc3)cccc12` [Compound No. 4, 1'-Acetyl-5'-isoquinolyl 4-guanidinobenzoate hydrochloride], for which the figures for the IC50 in assay [1] and in assay [2] were 57 nM and 140 nM, respectively.
Take `N=C(N)Nc1ccc(C(=O)Oc2cccc3c(C(N)=O)nccc23)cc1` [Compound No. 6, 1'-Carbamoyl-5'-isoquinolyl 4-guanidinobenzoate methanesulfonate hemihydrate]: the IC50 in assay [1] was found to be 56 nM; in assay [2], 160 nM.
As for `CCOC(=O)c1ccc(OC(=O)CCCCCNC(=N)N)cc1` [Gabexate mesylate, Ethyl 4-(6-guanidinohexanoyloxy)benzoate methanesulfonate, reference compound], the IC50 in assay [1] was 15000 nM; in assay [2], 2200 nM.
In the same order, the values of `CCCCOC(=O)c1nccc2c(OC(=O)c3ccc(NC(=N)N)cc3)cccc12` [Compound No. 10, 1'-Butoxycarbonyl-5'-isoquinolyl 4-guanidinobenzoate hydrochloride monohydrate] are 150 nM and 210 nM.
In the same order, the values of `CCOC(=O)c1nccc2c(OC(=O)c3ccc(NC(=N)N)cc3)cccc12` [Compound No. 7, 1'-Ethoxycarbonyl-5'-isoquinolyl 4-guanidinobenzoate hydrochloride] are 56 nM and 120 nM.
As for `CCCOC(=O)c1nccc2c(OC(=O)c3ccc(NC(=N)N)cc3)cccc12` [Compound No. 8, 1'-Propoxycarbonyl-5'-isoquinolyl 4-guanidinobenzoate methanesulfonate], the IC50 in assay [1] worked out at 96 nM; in assay [2], 160 nM.
As to `CC(C)OC(=O)c1nccc2c(OC(=O)c3ccc(NC(=N)N)cc3)cccc12` [Compound No. 9, 1'-Isopropoxycarbonyl-5'-isoquinolyl 4-guanidinobenzoate hydrochloride], the IC50 came out at 130 nM in assay [1] and 160 nM in assay [2].
Consider `N=C(N)Nc1ccc(C(=O)Oc2cccc3cnccc23)cc1` [Compound No. 1, 5-Isoquinolyl 4-guanidinobenzoate dimethanesulfonate monohydrate], for which the IC50 in assay [1] was determined as 56 nM; in assay [2], 130 nM.
For the compound `N=C(N)Nc1ccc(C(=O)Oc2cccc3c(C(=O)OCc4ccccc4)nccc23)cc1` [Compound No. 11, 1'-Benzyloxycarbonyl-5'-isoquinolyl 4-guanidinobenzoate hydrochloride monohydrate], the IC50 in assay [1] is 340 nM; in assay [2], 410 nM.
Regarding `N=C(N)Nc1ccc(C(=O)Oc2cccc3c(C(=O)O)nccc23)cc1` [Compound No. 5, 1'-Carboxy-5'-isoquinolyl 4-guanidinobenzoate quarterhydrate], the values for the IC50 in assay [1] and in assay [2] were 64 nM and 170 nM, respectively.
Take `N=C(N)Nc1ccc(C(=O)Oc2cccc3c(O)nccc23)cc1` [Compound No. 2, 1'-Hydroxy-5'-isoquinolyl 4-guanidinobenzoate methanesulfonate]: the IC50 in assay [1] came to 64 nM; in assay [2] it was 140 nM.
As to `N#Cc1nccc2c(OC(=O)c3ccc(NC(=N)N)cc3)cccc12` [Compound No. 3, 1'-Cyano-5'-isoquinolyl 4-guanidinobenzoate methanesulfonate monohydrate], the values for the IC50 in assay [1] and in assay [2] were 56 nM and 140 nM, respectively.
